The supplement of paper PMC10307832

Tests used:
Assay in all cases: relative viability (nuclei count vs DMSO), 5 days (fraction); higher = more cells survive
[1] = compound: C[C@]1(c2nc3c(C(N)=O)cccc3[nH]2)CCCN1 [Veliparib] + CC(=O)Nc1cccc(-n2c(=O)n(C3CC3)c(=O)c3c(Nc4ccc(I)cc4F)n(C)c(=O)c(C)c32)c1 [Trametinib] (partner 0.02 µM)
Outline: (§1)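 Values are medians from duplicate plates. Each reflects relative viability, defined as the nuclei count of treated wells over that of vehicle wells. Lung cancer cell lines in 1536-well plates were pin-tool dosed one day after seeding with one drug alone or with a fixed anchor-drug dose plus five library-drug doses (not always all listed) in √10 steps, then fixed, stained and imaged at 4× after 5 days.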

[2] = compound: C[C@]1(c2nc3c(C(N)=O)cccc3[nH]2)CCCN1 [Veliparib] + CC1(C)CCC(c2ccc(Cl)cc2)=C(CN2CCN(c3ccc(C(=O)NS(=O)(=O)c4ccc(N[C@H](CCN5CCOCC5)CSc5ccccc5)c(S(=O)(=O)C(F)(F)F)c4)cc3)CC2)C1 [Navitoclax] (partner 0.5 µM)
Outline: as §1

[3] = compound: COC1=CC=C(C=C1)CN2C=CC3=C2C=C(C=C3)C(=O)NO + COc1cc2c(Oc3ccc(NC(=O)C4(C(=O)Nc5ccc(F)cc5)CC4)cc3F)ccnc2cc1OCCCN1CCOCC1 [Foretinib] (partner 0.25 µM)
Outline: as §1

[4] = compound: COC1=CC=C(C=C1)CN2C=CC3=C2C=C(C=C3)C(=O)NO + O=C(CCCCCCC(=O)Nc1ccccc1)NO [Vorinostat] (partner 1 µM)
Outline: as §1

| Cell Line | relative viability ([1]; first compound 0.02 µM) | relative viability ([1]; first compound 0.06325 µM) | relative viability ([1]; first compound 0.2 µM) | relative viability ([1]; first compound 0.6325 µM) | relative viability ([1]; first compound 2 µM) | relative viability ([2]; first compound 0.02 µM) | relative viability ([2]; first compound 0.06325 µM) | relative viability ([2]; first compound 0.2 µM) | relative viability ([2]; first compound 0.6325 µM) | relative viability ([2]; first compound 2 µM) | relative viability ([3]; first compound 0.253 µM) | relative viability ([3]; first compound 0.8 µM) | relative viability ([3]; first compound 2.53 µM) | relative viability ([3]; first compound 8 µM) | relative viability ([4]; first compound 0.253 µM) | relative viability ([4]; first compound 0.8 µM) | relative viability ([4]; first compound 2.53 µM) | relative viability ([4]; first compound 8 µM) | relative viability ([3]; first compound 0.08 µM) | relative viability ([4]; first compound 0.08 µM) |
| --- | --- | --- | --- | --- | --- | --- | --- | --- | --- | --- | --- | --- | --- | --- | --- | --- | --- | --- | --- | --- |
| LXF-289 | 0.671 | 0.691 | 0.668 | 0.681 | 0.657 | 0.932 | 0.948 | 0.931 | 0.888 | 0.968 | 0.994 | 1.01 | 1.02 | 1.03 | 0.815 | 0.813 | 0.797 | 0.668 | – | – |
| NCI-H23 | 0.448 | 0.413 | 0.509 | 0.4 | 0.469 | 0.884 | 0.772 | 0.828 | 0.81 | 0.791 | 1.17 | 0.981 | 0.955 | 0.853 | 0.649 | 0.637 | 0.584 | 0.461 | 0.823 | 0.338 |
| NCI-H322M | – | 0.52 | 0.465 | 0.5 | 0.494 | 1.21 | 1.04 | 1.19 | 1.23 | 1.2 | 1.03 | 1.06 | 0.984 | 0.882 | – | 0.866 | 0.888 | 0.845 | – | – |
| NCI-H441 | 0.489 | 0.497 | 0.488 | 0.477 | 0.568 | 0.701 | 0.478 | 0.667 | 0.501 | 0.387 | 1.26 | 0.943 | 1.03 | 0.844 | 0.888 | 0.902 | 0.844 | 0.637 | 0.933 | 0.74 |
| NCI-H460 | 0.185 | 0.0956 | 0.1 | 0.109 | 0.202 | – | 1.02 | 1.06 | 1.03 | 1.12 | 1.06 | 0.973 | 0.974 | 1.02 | 0.736 | 0.758 | 0.783 | 0.57 | 0.53 | 0.508 |
| NCI-H520 | 0.749 | 0.68 | 0.721 | 0.646 | 0.705 | 1.16 | 1.02 | 1.17 | 1.04 | 1.07 | 0.841 | 0.895 | 0.814 | 0.907 | 0.775 | 0.682 | 0.664 | 0.712 | 0.326 | 0.601 |
| NCI-H596 | 0.83 | 0.666 | 0.77 | 0.806 | 0.793 | 1.02 | 0.861 | 1.06 | 0.761 | 0.834 | 0.983 | 0.846 | 0.895 | 0.523 | 0.536 | 0.589 | 0.708 | 0.778 | 0.841 | 0.587 |
| NCI-H647 | 0.502 | 0.451 | 0.483 | 0.478 | 0.481 | 1.13 | 1.14 | 1.14 | 1.03 | 1.1 | 1.34 | 1.09 | 1.2 | 1.38 | 0.738 | 0.802 | 0.702 | 0.515 | 0.707 | 0.457 |
| NCI-H727 | 0.379 | 0.39 | 0.42 | 0.428 | 0.416 | 0.4 | 0.492 | 0.504 | 0.369 | 0.467 | 0.951 | 1.31 | 0.819 | 0.836 | 1.17 | 1.22 | 1.25 | 1.25 | 0.792 | 1.13 |
| NCI-H838 | 0.566 | 0.501 | 0.54 | 0.524 | 0.521 | 1.2 | 1.1 | 1.12 | 1.11 | 1.2 | 1.07 | 1 | 0.995 | 0.982 | 0.614 | 0.75 | 0.771 | 0.737 | – | 0.285 |
| NCI-H1355 | 0.368 | 0.282 | 0.438 | 0.422 | 0.447 | – | 0.872 | 0.9 | 0.904 | 0.971 | 0.959 | 0.928 | 1.02 | 0.962 | 0.695 | 0.65 | 0.625 | 0.589 | – | 0.223 |
| NCI-H1395 | 0.995 | 0.96 | 0.924 | 0.899 | 0.857 | – | 1.05 | 1.01 | 1.11 | 0.899 | 0.949 | 0.99 | 1.04 | 0.99 | 0.634 | 0.816 | 0.84 | 0.574 | 0.916 | – |
| NCI-H1437 | 0.502 | 0.527 | 0.514 | 0.502 | 0.497 | 1.02 | 0.997 | 1.13 | 1.08 | 1.05 | 1.21 | 1.22 | 1.34 | 1.27 | 0.766 | 0.881 | 0.891 | 1.01 | 1.05 | 0.684 |
| NCI-H1650 | 0.335 | 0.374 | 0.58 | 0.497 | 0.508 | – | 0.93 | 1.19 | 1.08 | 1.32 | 1.14 | 1.29 | 1.27 | 0.766 | 0.557 | 0.595 | 0.684 | 0.532 | 0.764 | 0.354 |
| NCI-H1651 | 0.844 | 0.836 | 0.785 | 0.77 | 0.8 | 1.04 | 1.05 | 1.1 | 1.01 | 0.916 | 0.89 | 0.709 | 0.723 | 0.694 | 0.512 | 0.498 | 0.464 | 0.475 | 0.646 | 0.52 |
| NCI-H1666 | 0.84 | 0.861 | 0.782 | 0.754 | 0.926 | 1.03 | 0.696 | 0.932 | 0.8 | 1.03 | 1.06 | 0.985 | 0.963 | 1.06 | 1.09 | 1.01 | 1.09 | 1.04 | 0.755 | 0.945 |
| NCI-H1734 | – | 0.613 | 0.792 | 0.631 | 0.72 | 0.811 | 0.807 | 0.76 | 0.745 | 0.866 | 0.919 | 0.852 | 0.897 | 0.863 | 0.882 | 0.779 | 0.731 | 0.658 | – | – |
